The text below walks through data of the Kinase Knowledgebase extract (Sharma et al. 2016).

In test [1] the target is PIK3CG (human) (UniProt P48736). Description: Inhibition of PIK3CG Kinase Activity.
The target in test [2] is PIK3CA (human) (UniProt P42336). In words: Assessment of PIK3CA Kinase Activity.
In test [3] the target is MAPK14 (UniProt Q16539). Description: Inhibition of MAPK14 Kinase Activity.
Test [4] concerns the target CDK2 (UniProt P24941). In words: Enzyme Assay.

Bounds are passed on as bounds.

Chain of PIK3CG (human) (P48736 whole entry, looked up): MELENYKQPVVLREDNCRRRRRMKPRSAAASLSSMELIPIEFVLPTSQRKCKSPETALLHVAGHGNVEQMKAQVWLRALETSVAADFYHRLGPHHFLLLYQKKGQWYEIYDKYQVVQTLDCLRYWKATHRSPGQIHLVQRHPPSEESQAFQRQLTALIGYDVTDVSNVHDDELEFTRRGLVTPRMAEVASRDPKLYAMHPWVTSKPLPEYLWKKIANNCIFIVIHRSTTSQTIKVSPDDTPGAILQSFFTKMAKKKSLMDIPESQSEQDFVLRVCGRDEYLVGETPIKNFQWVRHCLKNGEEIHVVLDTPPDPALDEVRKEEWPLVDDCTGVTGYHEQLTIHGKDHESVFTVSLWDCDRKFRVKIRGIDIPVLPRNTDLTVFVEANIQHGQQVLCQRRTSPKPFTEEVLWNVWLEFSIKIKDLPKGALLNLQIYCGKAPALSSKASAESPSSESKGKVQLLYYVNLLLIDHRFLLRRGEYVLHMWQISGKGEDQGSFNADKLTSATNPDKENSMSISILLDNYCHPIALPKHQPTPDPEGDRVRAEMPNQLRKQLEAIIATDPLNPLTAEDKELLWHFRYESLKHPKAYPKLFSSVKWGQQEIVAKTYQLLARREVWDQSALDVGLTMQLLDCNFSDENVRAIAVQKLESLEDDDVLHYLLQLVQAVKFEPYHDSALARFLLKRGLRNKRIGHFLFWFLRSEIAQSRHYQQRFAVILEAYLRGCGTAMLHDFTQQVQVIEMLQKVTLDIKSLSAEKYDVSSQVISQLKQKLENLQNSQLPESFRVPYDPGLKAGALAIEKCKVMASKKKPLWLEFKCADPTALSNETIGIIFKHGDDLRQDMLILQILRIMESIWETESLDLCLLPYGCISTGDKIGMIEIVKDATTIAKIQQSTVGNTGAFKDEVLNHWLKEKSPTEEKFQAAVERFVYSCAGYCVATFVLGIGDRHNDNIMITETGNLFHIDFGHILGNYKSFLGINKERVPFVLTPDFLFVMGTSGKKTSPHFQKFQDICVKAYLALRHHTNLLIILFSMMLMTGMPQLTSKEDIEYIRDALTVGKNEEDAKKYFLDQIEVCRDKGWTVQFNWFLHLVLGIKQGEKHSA
Chain of PIK3CA (human) (P42336 whole entry, looked up): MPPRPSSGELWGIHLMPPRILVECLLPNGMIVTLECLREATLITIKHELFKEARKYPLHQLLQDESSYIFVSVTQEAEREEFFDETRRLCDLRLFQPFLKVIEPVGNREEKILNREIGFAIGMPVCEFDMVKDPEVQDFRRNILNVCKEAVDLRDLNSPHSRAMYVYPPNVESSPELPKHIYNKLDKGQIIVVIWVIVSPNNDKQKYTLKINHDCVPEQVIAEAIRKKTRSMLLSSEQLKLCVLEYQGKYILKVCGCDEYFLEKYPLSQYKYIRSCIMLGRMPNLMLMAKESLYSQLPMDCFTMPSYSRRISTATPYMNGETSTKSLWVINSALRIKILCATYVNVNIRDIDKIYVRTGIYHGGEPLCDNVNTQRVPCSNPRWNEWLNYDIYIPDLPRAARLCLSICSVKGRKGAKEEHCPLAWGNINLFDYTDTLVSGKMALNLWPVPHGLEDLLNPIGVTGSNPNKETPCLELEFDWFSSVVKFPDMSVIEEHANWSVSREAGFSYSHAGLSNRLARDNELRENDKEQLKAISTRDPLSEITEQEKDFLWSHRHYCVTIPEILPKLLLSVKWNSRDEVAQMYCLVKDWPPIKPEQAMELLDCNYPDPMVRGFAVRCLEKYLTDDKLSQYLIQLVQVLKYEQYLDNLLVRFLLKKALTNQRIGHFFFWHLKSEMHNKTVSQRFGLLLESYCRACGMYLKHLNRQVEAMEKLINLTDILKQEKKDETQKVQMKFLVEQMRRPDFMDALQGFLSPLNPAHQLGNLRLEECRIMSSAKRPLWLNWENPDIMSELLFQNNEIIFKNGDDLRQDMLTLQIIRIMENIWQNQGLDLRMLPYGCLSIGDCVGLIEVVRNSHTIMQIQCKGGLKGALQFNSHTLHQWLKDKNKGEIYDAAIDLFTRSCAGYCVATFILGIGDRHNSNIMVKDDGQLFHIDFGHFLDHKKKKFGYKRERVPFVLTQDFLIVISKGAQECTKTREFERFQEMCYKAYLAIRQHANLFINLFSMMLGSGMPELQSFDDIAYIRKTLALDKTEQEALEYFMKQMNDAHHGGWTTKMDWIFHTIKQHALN
Chain of MAPK14 (Q16539 whole entry, looked up): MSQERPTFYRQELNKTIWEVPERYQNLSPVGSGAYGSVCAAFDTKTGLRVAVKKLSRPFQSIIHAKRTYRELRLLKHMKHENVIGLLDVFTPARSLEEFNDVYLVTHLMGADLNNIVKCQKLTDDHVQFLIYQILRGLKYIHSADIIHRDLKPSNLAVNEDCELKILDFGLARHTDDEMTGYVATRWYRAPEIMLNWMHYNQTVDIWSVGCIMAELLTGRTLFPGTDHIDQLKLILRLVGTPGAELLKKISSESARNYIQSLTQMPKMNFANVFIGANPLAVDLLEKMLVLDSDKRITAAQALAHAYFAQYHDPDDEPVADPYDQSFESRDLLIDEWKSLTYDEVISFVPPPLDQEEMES

In general, IC50 refers to the concentration needed to halve the response being measured. High values mean a need for much substance, low ones inhibition by little substance. As for `CCCn1c(C(=O)Nc2nnn[nH]2)c(-c2ccccc2)c2cc(OC)c(OC)cc21`, in test [1], the IC50 was 4140 nM.
Same read-out and setting: next, `COc1ccc(OC)c(Nc2nc3ccccc3nc2NS(=O)(=O)c2cccnc2)c1`: 56 nM.
One may read the Ki as the dissociation constant of the complex between target and ligand, obtained from inhibition or displacement. Read a high Ki as a looser hold on the target. `COCCOc1cnc(Nc2cnc(Cl)c(NS(C)(=O)=O)c2)c(-c2nc(C)nc(N)n2)c1` returned an inhibition constant (Ki) in test [2] of 25 nM.
`Cc1cc(NC(=O)CCNC(=O)Nc2cn3cc(Br)ccc3n2)no1` yielded a Ki in test [1] of 4980 nM.
Turning to `COc1cccc(Nc2nc(-c3cccc4onc(N)c34)nc3c2cnn3C)c1OC`, in test [2], the IC50 turned out to be 1.7 nM.
Still for that read-out and setting: next, `O=C(Nc1ccc(F)cc1)Nc1ccc(-c2nc(N3CCOCC3)nc(N3C4CCC3COC4)n2)cc1`: 39 nM.
On the same count and under the same terms, for `O=C(Nc1cccc(-c2cc(N3CCOCC3)nc(-c3cccc(O)c3)n2)c1)C1CCCNC1` (stereo not drawn) the value was 100 nM; for `O=C(Nc1cccc(-c2cc(N3CCOCC3)nc(-c3cccc(CO)c3)n2)c1)N1CCNCC1`, 300 nM.
`COc1ccc(OC)c(Nc2nc3ccccc3nc2NS(=O)(=O)c2cccc(C#N)c2)c1`: the half-maximal inhibitory concentration (IC50) in test [1] amounted to 430 nM.
As for `CCNC(=O)Nc1ccc(-c2nc(N3CCO[C@@H](C)C3)c3cnn(C4CCN(C(=O)OCC)CC4)c3n2)cc1`, the concentration for half-maximal inhibition (IC50) in test [2] worked out at 553 nM.
Consider `COc1cc2c(O[C@H]3C[C@@H](C)CC(C)(C)C3)c(C(=O)Nc3nn[nH]n3)sc2cc1C`, for which, in test [1], the half-inhibitory concentration (IC50) worked out at 9 nM. In other words, the single-digit nanomolar range.
As for `CCOC(=O)N1CCC(n2ncc3c(N4CCO[C@H](C)C4)nc(-c4ccc(NC(=O)Nc5ccncc5)cc4)nc32)CC1`, the IC50 in test [2] was found to be 517 nM.
In test [2], `NC(=O)[C@@H]1CCCN1CC(=O)N1CCN(c2nc(N3CCOCC3)cc(-n3c(C(F)F)nc4ccccc43)n2)CC1` gave an IC50 of 200 nM.
`CC(C)n1nnc(CCNC(=O)Nc2cn3cc(-c4cncc(F)c4)ccc3n2)n1`: the inhibition constant (Ki) in test [1] is 168 nM.
Compound `O=C1NC(=O)/C(=C/c2ccc3ncn(-c4ccc5c(c4)CCN5S(=O)(=O)CCCN4CCOCC4)c3n2)S1` displayed an IC50 in test [1] of 20 nM.
As to `OC1CCC(Nc2ncc3cc(Oc4ccc(F)cc4F)ccc3n2)CC1` (stereo not drawn), the concentration for half-maximal inhibition (IC50) in test [3] is less than 30 nM.
Consider `Nc1ncc(-c2nc(N3CCOCC3)nc3c2CCN3c2ccc(CN3CCN(CCCCF)CC3)cc2)cn1`, for which, in test [2], the IC50 was determined as 20 nM.
The compound `NC(=O)[C@@H]1CCCN1C(=O)Nc1nc2ccc(-c3cnc(N)c(C(F)(F)F)c3)cc2s1` had a Ki in test [2] of 40 nM. That is a double-digit nanomolar value.
In test [2], `Cc1ncnc(N2CCC(=O)CC2)c1C#Cc1ccc(N)nc1` yielded a 50% inhibitory concentration (IC50) of 104 nM.
Consider `CCOc1cc2cnc(NC(CCOC)CCOC)nc2[nH]c1=O`, for which the IC50 in test [3] came out at 7700 nM.
`CSc1nc(-c2ccnc(NC(C)c3ccccc3)c2)c(-c2ccc(F)cc2)n1C` (stereo not drawn) returned an IC50 in test [3] of 27000 nM.
On the same count and under the same terms, for `FC(F)(F)c1cnc(Nc2ccc(Br)cc2)nc1Nc1ccc2nc[nH]c2c1` the value was more than 1000 nM.
As to `Cc1nc(N)nc(-c2cc(Cl)cnc2Nc2cnc(Cl)c(NS(=O)(=O)N(C)C)c2)n1`, the Ki in test [2] is 12 nM. In other words, the double-digit nanomolar range.
Take `CNc1nc(C)c(-c2ccnc(Nc3ccc(N4CCOCC4)cc3)n2)s1`: the concentration for half-maximal inhibition (IC50) in test [3] was more than 100000 nM.
Still for that read-out and setting: next, `OCC(O)CNc1ncc2cc(Oc3ccc(F)cc3F)ccc2n1` (stereo not drawn): less than 2000 nM; `CC[C@@H](N)C(=O)Nc1nc(C)c(-c2ccnc(Nc3cccc([N+](=O)[O-])c3)n2)s1`: more than 100000 nM.
In test [2], `CCc1ncnc(N2CCC(O)(CC)CC2)c1C#Cc1ccc(N)nc1` displayed an IC50 of 50 nM.
Same read-out and setting: for `Cc1nc(N)nc(-c2c(Nc3ccn[nH]3)nc3ccc(CCC(O)CO)cn23)n1` (stereo not drawn) the value was 170 nM.
`COc1cc2sc(C(=O)Nc3nnn[nH]3)c(OCC3CCCCCC3)c2cc1OC` returned an IC50 in test [1] of 36 nM.
For the compound `Cc1ccc2ncc(C3=C(c4cn5c6c(cccc46)CN(C(=O)N4CCCCC4)CC5)C(=O)NC3=O)n2c1`, the IC50 in test [4] and in test [3] was more than 20000 nM each time.
Compound `Cc1cccc(Cl)c1Nc1nc2ccc(N3CCN[C@@H](C)C3)nc2n2cncc12` yielded an IC50 in test [3] of 380 nM.
Turning to `CCC1(O)CCN(c2ncnc(C)c2C#Cc2ccc(N)nc2)CC1`, the IC50 in test [2] was 15 nM.
On the same count and under the same terms, next, `Cc1nc(N)cc(n1)C2=C(Nc3cc[nH]n3)NC4=N2N=CC=C4`: 830 nM; `O=C(Nc1ccc(-c2cc(-n3c(C(F)F)nc4ccccc43)nc(N3CCOCC3)n2)cc1)[C@@H]1CCCCN1`: 2300 nM.
In test [3], `C[C@H](C(=O)O)N1CCC(c2cc3c(ccc(=O)n3-c3c(Cl)cccc3Cl)c(-c3ccc(F)cc3Cl)n2)CC1` returned an IC50 of 3.2 nM. This counts as single-digit nanomolar.
Turning to `FC(F)(F)c1cnc(Nc2ccc3[nH]cnc3c2)nc1Nc1ccc2[nH]cnc2c1`, the half-inhibitory concentration (IC50) in test [4] is 19 nM; in test [3], more than 1000 nM.
As to `CCOC(=O)N1CCC(n2ncc3c(N4CCO[C@@H](C)C4)nc(-c4ccc(NC(=O)NCCF)cc4)nc32)CC1`, in test [2], the IC50 was found to be 521 nM.
As for `Cc1cccc(-n2nnnc2-c2ccc3c(c2)n(C)c(=O)n3C)c1`, the half-inhibitory concentration (IC50) in test [3] is 14400 nM.
Same read-out and setting: next, `O=c1ncn2nc(Sc3ccc(F)cc3)ccc2c1-c1c(Cl)cccc1Cl`: 100 nM.
In test [2], `CCNC(=O)Nc1ccc(-c2nc(N3CCO[C@H](C)C3)c3cnn(C4CCN(C(=O)OCC)CC4)c3n2)cc1` returned an IC50 of 4360 nM.
The same measure, in the same setting: for `CS(=O)(=O)Cc1cc(N2CCOCC2)nc(-c2ccc(NC(=O)c3ccno3)cc2)n1` the value was more than 100000 nM.
